# In patent US20130252816A1, “HERBICIDAL COMPOSITION AND USE THEREOF” (Syngenta Crop Protection LLC, priority 2010, published 2013):
# Experiments:
# Assay type in all cases: in vivo
# Veronica persica = assay: Example 2: alcohol ethoxylate adjuvants without glyphosate, visual % damage, tracksprayer 300 l/ha
# Excerpt: (§1) The effect of different types of alcohol ethoxylate (branched—Genapol X-series, and unbranched—Genapol O-series, differing degrees of ethoxylation, see Table 3 below for more details), on unwanted vegetation (broadleaf weed and grass species), in the absence of glyphosate, was investigated and compared to untreated (water only) control weeds.
# (§2) Troughs (measuring 16 cm by 13 cm by 5 cm) were filled with local field soil. Seeds of Veronica persica, Stellaria media, Trifolium repens and Poa annua were sown 24 days before application of test samples. Plants were grown in the glasshouse at 18 to 20° C. and 60% relative humidity. Application of alcohol ethoxylate test samples was carried out using a tracksprayer, spraying at a rate of 300 l/ha. Plants were kept in glasshouse and visual assessment of the estimated percentage damage to the plant was carried out 1, 7, and 14 days from application.
# (§3) Damage was assessed as wilting, desiccation or any other kind of visual injury in comparison to the untreated control (water only).
# Stellaria media [1] = assay: as above
# Excerpt: as §1, §2, §3
# Poa annua [2] = assay: as above
# Excerpt: as §1, §2, §3
# Trifolium repens = assay: as above
# Excerpt: as §1, §2, §3
# [3] = tested on: broadleaf weed and grass species; assay: Example 2: overall statement on alcohol ethoxylates without glyphosate; conditions: absence of glyphosate
# Excerpt: as §1, §2, §3
# [4] = tested on: broadleaf weeds and grasses; assay: Example 1: overall statement on adjuvants alone; conditions: 1 and 6 days after treatment, adjuvant alone
# Description: (§4) The effect of different adjuvants (see Table 1 below) on the growth of broadleaf weed and grass species was investigated and compared to untreated (water only) control weeds.
# (§5) Plates, each with 48 pots measuring 2.7 cm diameter and 5 cm deep, were filled with TKS1 growing media (Floragard, Germany). Seeds of Taraxacum officinale, Stellaria media or Poa annua were sown on the surface (10 to 20 per pot). Plants were grown in glasshouse at a temperature of 18 to 20° C. and at 60% relative humidity.
# (§6) Plants were treated 15 (Stellaria, Poa) and 34 (Taraxacum) days after sowing with 60 μl of a 1.25, 2.5, 5 and 10% (w/v) solution of adjuvant using a hand airbrush.
# (§7) Visual assessment of the percentage damage to the plant was carried out 1 day and 6 days from application.
# as §3
# Stellaria media [5] = assay: Example 1: adjuvants alone, visual % damage, pots in glasshouse
# Description: as §4, §5, §6, §7, §3
# Poa annua [6] = assay: as above
# Description: as §4, §5, §6, §7, §3
# Taraxacum officinale = assay: as above
# Description: as §4, §5, §6, §7, §3
substance,measurement,setting,value
Iso-tridecyl alcohol polyglycol ether with 8 moles of ethoxylation [GenapolX080],mean % damage 1 daa Veronica persica,Veronica persica; adjuvant 1% w/v,5%
same,mean % damage 7 daa Veronica persica,Veronica persica; adjuvant 1% w/v,5%
same,mean % damage 14 daa Veronica persica,Veronica persica; adjuvant 1% w/v,5%
same,mean % damage 1 daa Veronica persica,Veronica persica; adjuvant 1.5% w/v,10%
same,mean % damage 7 daa Veronica persica,Veronica persica; adjuvant 1.5% w/v,20%
same,mean % damage 14 daa Veronica persica,Veronica persica; adjuvant 1.5% w/v,20%
same,mean % damage 1 daa Veronica persica,Veronica persica; adjuvant 2% w/v,20%
same,mean % damage 7 daa Veronica persica,Veronica persica; adjuvant 2% w/v,10%
same,mean % damage 14 daa Veronica persica,Veronica persica; adjuvant 2% w/v,20%
same,mean % damage 1 daa Veronica persica,Veronica persica; adjuvant 2.5% w/v,30%
same,mean % damage 7 daa Veronica persica,Veronica persica; adjuvant 2.5% w/v,40%
same,mean % damage 14 daa Veronica persica,Veronica persica; adjuvant 2.5% w/v,40%
same,mean % damage 1 daa Stellaria media,Stellaria media [1]; adjuvant 1% w/v,10%
same,mean % damage 7 daa Stellaria media,Stellaria media [1]; adjuvant 1% w/v,10%
same,mean % damage 14 daa Stellaria media,Stellaria media [1]; adjuvant 1% w/v,5%
same,mean % damage 1 daa Stellaria media,Stellaria media [1]; adjuvant 1.5% w/v,10%
same,mean % damage 7 daa Stellaria media,Stellaria media [1]; adjuvant 1.5% w/v,10%
same,mean % damage 14 daa Stellaria media,Stellaria media [1]; adjuvant 1.5% w/v,0%
same,mean % damage 1 daa Stellaria media,Stellaria media [1]; adjuvant 2% w/v,20%
same,mean % damage 7 daa Stellaria media,Stellaria media [1]; adjuvant 2% w/v,20%
same,mean % damage 14 daa Stellaria media,Stellaria media [1]; adjuvant 2% w/v,10%
same,mean % damage 1 daa Stellaria media,Stellaria media [1]; adjuvant 2.5% w/v,30%
same,mean % damage 7 daa Stellaria media,Stellaria media [1]; adjuvant 2.5% w/v,30%
same,mean % damage 14 daa Stellaria media,Stellaria media [1]; adjuvant 2.5% w/v,10%
same,mean % damage 1 daa Poa annua,Poa annua [2]; adjuvant 1% w/v,0%
same,mean % damage 7 daa Poa annua,Poa annua [2]; adjuvant 1% w/v,10%
same,mean % damage 14 daa Poa annua,Poa annua [2]; adjuvant 1% w/v,0%
same,mean % damage 1 daa Poa annua,Poa annua [2]; adjuvant 1.5% w/v,10%
same,mean % damage 7 daa Poa annua,Poa annua [2]; adjuvant 1.5% w/v,30%
same,mean % damage 14 daa Poa annua,Poa annua [2]; adjuvant 1.5% w/v,5%
same,mean % damage 1 daa Poa annua,Poa annua [2]; adjuvant 2% w/v,40%
same,mean % damage 7 daa Poa annua,Poa annua [2]; adjuvant 2% w/v,50%
same,mean % damage 14 daa Poa annua,Poa annua [2]; adjuvant 2% w/v,10%
same,mean % damage 1 daa Poa annua,Poa annua [2]; adjuvant 2.5% w/v,40%
same,mean % damage 7 daa Poa annua,Poa annua [2]; adjuvant 2.5% w/v,50%
same,mean % damage 14 daa Poa annua,Poa annua [2]; adjuvant 2.5% w/v,20%
same,mean % damage 1 daa Trifolium repens,Trifolium repens; adjuvant 1% w/v,20%
same,mean % damage 7 daa Trifolium repens,Trifolium repens; adjuvant 1% w/v,20%
same,mean % damage 14 daa Trifolium repens,Trifolium repens; adjuvant 1% w/v,15%
same,mean % damage 1 daa Trifolium repens,Trifolium repens; adjuvant 1.5% w/v,50%
same,mean % damage 7 daa Trifolium repens,Trifolium repens; adjuvant 1.5% w/v,60%
same,mean % damage 14 daa Trifolium repens,Trifolium repens; adjuvant 1.5% w/v,10%
same,mean % damage 1 daa Trifolium repens,Trifolium repens; adjuvant 2% w/v,50%
same,mean % damage 7 daa Trifolium repens,Trifolium repens; adjuvant 2% w/v,60%
same,mean % damage 14 daa Trifolium repens,Trifolium repens; adjuvant 2% w/v,15%
same,mean % damage 1 daa Trifolium repens,Trifolium repens; adjuvant 2.5% w/v,50%
same,mean % damage 7 daa Trifolium repens,Trifolium repens; adjuvant 2.5% w/v,60%
same,mean % damage 14 daa Trifolium repens,Trifolium repens; adjuvant 2.5% w/v,10%
same,course of damage over time (recovery),[3],the level of damage decreases from day 14 onwards
Iso-tridecyl alcohol polyglycol ether with 15 Moles of ethoxylation [GenapolX-150],visual symptoms of phytotoxicity,[4],comparatively high level of visual symptoms of phytoxicity
same,avg % damage 1 DAA Stellaria media,Stellaria media [5]; adjuvant 1.25% w/v,0%
same,avg % damage 6 DAA Stellaria media,Stellaria media [5]; adjuvant 1.25% w/v,10%
same,avg % damage 1 DAA Stellaria media,Stellaria media [5]; adjuvant 2.5% w/v,0%
same,avg % damage 6 DAA Stellaria media,Stellaria media [5]; adjuvant 2.5% w/v,10%
same,avg % damage 1 DAA Stellaria media,Stellaria media [5]; adjuvant 5% w/v,15%
same,avg % damage 6 DAA Stellaria media,Stellaria media [5]; adjuvant 5% w/v,15%
same,avg % damage 1 DAA Stellaria media,Stellaria media [5]; adjuvant 10% w/v,25%
same,avg % damage 6 DAA Stellaria media,Stellaria media [5]; adjuvant 10% w/v,25%
same,avg % damage 1 DAA Poa annua,Poa annua [6]; adjuvant 1.25% w/v,0%
same,avg % damage 6 DAA Poa annua,Poa annua [6]; adjuvant 1.25% w/v,10%
same,avg % damage 1 DAA Poa annua,Poa annua [6]; adjuvant 2.5% w/v,0%
same,avg % damage 6 DAA Poa annua,Poa annua [6]; adjuvant 2.5% w/v,5%
same,avg % damage 1 DAA Poa annua,Poa annua [6]; adjuvant 5% w/v,0%
same,avg % damage 6 DAA Poa annua,Poa annua [6]; adjuvant 5% w/v,10%
same,avg % damage 1 DAA Poa annua,Poa annua [6]; adjuvant 10% w/v,0%
same,avg % damage 6 DAA Poa annua,Poa annua [6]; adjuvant 10% w/v,10%
same,avg % damage 1 DAA Taraxacum officinale,Taraxacum officinale; adjuvant 1.25% w/v,10%
same,avg % damage 6 DAA Taraxacum officinale,Taraxacum officinale; adjuvant 1.25% w/v,5%
same,avg % damage 1 DAA Taraxacum officinale,Taraxacum officinale; adjuvant 2.5% w/v,10%
same,avg % damage 6 DAA Taraxacum officinale,Taraxacum officinale; adjuvant 2.5% w/v,0%
same,avg % damage 1 DAA Taraxacum officinale,Taraxacum officinale; adjuvant 5% w/v,20%
same,avg % damage 6 DAA Taraxacum officinale,Taraxacum officinale; adjuvant 5% w/v,10%
same,avg % damage 1 DAA Taraxacum officinale,Taraxacum officinale; adjuvant 10% w/v,10%
same,avg % damage 6 DAA Taraxacum officinale,Taraxacum officinale; adjuvant 10% w/v,0%
